Experimental data as given in patent US12116358B2, “Substituted indoles and methods of use thereof” (EPIZYME, INC., priority 2018, dated 2024).
Like-named read-outs stand apart in the source and are kept apart here.

Tests used:
H3K36me3 in A549 cells = experiment: In-Cell Western (ICW) assay of SETD2 inhibitors (A549 assay); assay type: cell-based, human; details: A549 cells, read-out: SETD2 A549
Outline: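 A549 cells seeded at 4,000/well onto compound and incubated 3 days at 37° C. Methanol-fixed cells stained overnight at 4° C with anti-H3K36me3 (1:1000), then IRDye 800CW secondary with DRAQ5 DNA counterstain. Plates read by Licor imaging at 700 and 800 channels.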

SETD2(1434-1711) = molecular target: T1, SETD2(1434-1711) (Homo sapiens, UniProt Q9BYW2); experiment: SETD2 (1434-1711) assay; assay type: biochemical; details: read-out: SETD2 (1434-1711)
T1 construct: SETD2 (1434-1711) Assay; catalogue N/A
T1 sequence (Q9BYW2 1434-1711): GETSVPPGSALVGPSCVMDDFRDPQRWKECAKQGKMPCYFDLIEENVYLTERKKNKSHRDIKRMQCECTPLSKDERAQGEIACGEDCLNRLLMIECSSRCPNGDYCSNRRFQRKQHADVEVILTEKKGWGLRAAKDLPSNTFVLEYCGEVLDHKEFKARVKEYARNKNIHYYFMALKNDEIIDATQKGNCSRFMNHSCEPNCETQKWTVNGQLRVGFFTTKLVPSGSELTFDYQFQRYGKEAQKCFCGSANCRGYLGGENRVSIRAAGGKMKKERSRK

SMILES	IC50 (H3K36me3 in A549 cells; Homo sapiens)	IC50 (SETD2(1434-1711))	IC50 (H3K36me3 in A549 cells)
Cc1ccc(F)c2cc(C(=O)Nc3cc(F)cc([C@H]4CC[C@H](N(C)C)CC4)c3)[nH]c12 [compound 313]	1300 nM	30 nM	
CC(=O)N1CC2(C1)CN([C@@H]1CCC[C@@H](NC(=O)c3cc4c(F)ccc(C)c4[nH]3)C1)C2 [compound 889]	> 2000 nM	2500 nM	
Cc1ccc(F)c2cc(C(=O)Nc3cccc(N4CCN(C(C)C)CC4)c3)[nH]c12 [compound 243]		50 nM	600 nM
Cc1ccc(F)c2cc(C(=O)NC3CCCC(N4CCN(C(=O)OC(C)C)CC4)C3)[nH]c12 (stereo not drawn) [compound 997]		10 nM	80 nM
Cc1ccc(F)c2cc(C(=O)Nc3cccc(N4CCC(N5CCC5)C4)c3)[nH]c12 (stereo not drawn) [compound 178]	400 nM	10 nM	
Cc1ccc(F)c2cc(C(=O)Nc3cccc(N4CC[C@@H](N(C)C)[C@@H](C)C4)c3)[nH]c12 [compound 202]		20 nM	400 nM
Cc1ccc(F)c2cc(C(=O)N[C@@H]3CCC[C@H](N4CCn5nc(C(F)(F)F)nc5C4)C3)[nH]c12 [compound 1031]	1400 nM	200 nM	
Cc1ccc(F)c2cc(C(=O)Nc3cccc(N4CCN(C)CC4c4ccccc4)c3)[nH]c12 (stereo not drawn) [compound 539]		1600 nM	> 25000 nM
COCc1nnc(-c2cccc(NC(=O)c3cc4c(F)ccc(C)c4[nH]3)c2)s1 [compound 81]		30 nM	200 nM
Cc1ccc(F)c2cc(C(=O)N[C@@H]3CCC[C@H](N4CCC5(CCC(=O)N5)CC4)C3)[nH]c12 [compound 938]	500 nM	30 nM	
Cc1ccc(F)c2cc(C(=O)Nc3cccc(N4CCOC(C)C4)c3)[nH]c12 (stereo not drawn) [compound 129]	300 nM	60 nM	
COC(=O)N1CCC2(CC1)CN(c1cccc(NC(=O)c3cc4c(F)ccc(C)c4[nH]3)c1)C2 [compound 112]		30 nM	200 nM
Cc1ccc(F)c2cc(C(=O)Nc3cccc(N4CCOCC4CCO)c3)[nH]c12 (stereo not drawn) [compound 331]	1600 nM	600 nM	
CC(=O)N1CCN(C2COCC(NC(=O)c3cc4c(F)ccc(C)c4[nH]3)C2)CC1 (stereo not drawn) [compound 985]		6600 nM	> 2000 nM
Cc1ccc(NC(=O)c2cc3cccc(C)c3[nH]2)cc1CN1CCOCC1 [compound 456]	6100 nM	1400 nM	
Cc1ccc(F)c2cc(C(=O)Nc3cccc(N4CCC5(CCN(CC(F)F)C5)CC4)c3)[nH]c12 [compound 206]		90 nM	400 nM
Cc1ccc(F)c2cc(C(=O)Nc3cccc(-c4ncn5ccccc45)c3)[nH]c12 [compound 299]	1100 nM	200 nM	
Cc1ccc(F)c2cc(C(=O)NC3CCCC(N4CCC(N(CCO)S(C)(=O)=O)C4)C3)[nH]c12 (stereo not drawn) [compound 1151]		5800 nM	> 2000 nM
Cc1cccnc1C(CCC(=O)N1CCOCC1)NC(=O)c1cc2c(F)ccc(C)c2[nH]1 (stereo not drawn) [compound 334]	1600 nM	700 nM	

Second part, the compound after the results:

IC50 (H3K36me3 in A549 cells; Homo sapiens)	IC50 (SETD2(1434-1711))	IC50 (H3K36me3 in A549 cells)	SMILES
100 nM	20 nM		Cc1ccc(F)c2cc(C(=O)N[C@@H]3CCC[C@H](N4CCN(C(=O)C(C)C)CC4)C3)[nH]c12 [compound 837]
> 2000 nM	20 nM		Cc1ccc(F)c2cc(C(=O)N[C@@H]3CCC[C@H](N4CCC5(CC4)CNC(=O)N5)C3)[nH]c12 [compound 940]
> 2000 nM	5300 nM		CC(=O)N1CCN([C@H]2C[C@H](NC(=O)c3cc4c(F)ccc(C)c4[nH]3)CN(C)C2)CC1 [compound 1107]
	6300 nM	> 2000 nM	Cc1ccc(F)c2cc(C(=O)NC3CCCC(c4cncnc4)C3)[nH]c12 (stereo not drawn) [compound 369]
400 nM	30 nM		Cc1ccc(F)c2cc(C(=O)Nc3cccc(N4CC[C@H](N(C)C)[C@H](F)C4)c3)[nH]c12 [compound 186]
	9 nM	50 nM	Cc1ccc(F)c2cc(C(=O)Nc3cc(F)cc(N4CCC(N5CCN(C)C(=O)C5)C4)c3)[nH]c12 (stereo not drawn) [compound 17]
	1500 nM	6200 nM	Cc1cccc2cc(C(=O)Nc3ccc4nccn4c3)[nH]c12 [compound 459]
4900 nM	300 nM		Cc1ccc(F)c2cc(C(=O)Nc3cccc(C4CCCCN4)c3)[nH]c12 (stereo not drawn) [compound 438]
> 2000 nM	900 nM		Cc1ccc(F)c2cc(C(=O)N[C@@H]3CCCN(C4CCN(C(=O)CN(C)C)CC4)C3)[nH]c12 [compound 891]
1100 nM	400 nM		CNC(=O)CCc1cccc(NC(=O)c2cc3c(F)ccc(C)c3[nH]2)c1 [compound 293]
	6100 nM	> 2000 nM	Cc1ccc(F)c2cc(C(=O)NC3COCC(c4cncnc4)C3)[nH]c12 (stereo not drawn) [compound 368]
